One may read the IC50 as the concentration that inhibits the measured activity by half.

Chain of recombinant USP30 (amino acids 57-517 of the human sequence) (Q70CQ3 57-517): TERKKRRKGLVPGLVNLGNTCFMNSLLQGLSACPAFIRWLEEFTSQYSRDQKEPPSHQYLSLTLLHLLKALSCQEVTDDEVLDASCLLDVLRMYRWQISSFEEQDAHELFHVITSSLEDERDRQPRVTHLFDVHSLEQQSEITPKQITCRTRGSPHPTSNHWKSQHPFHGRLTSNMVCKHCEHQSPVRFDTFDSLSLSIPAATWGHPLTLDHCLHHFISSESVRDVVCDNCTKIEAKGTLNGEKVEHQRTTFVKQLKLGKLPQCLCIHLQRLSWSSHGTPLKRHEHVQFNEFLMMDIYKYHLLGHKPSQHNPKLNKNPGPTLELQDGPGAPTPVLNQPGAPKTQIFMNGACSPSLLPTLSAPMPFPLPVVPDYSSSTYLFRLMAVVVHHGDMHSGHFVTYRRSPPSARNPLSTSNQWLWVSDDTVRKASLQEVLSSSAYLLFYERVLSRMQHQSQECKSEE

For one experiment, the target named is recombinant USP30 (amino acids 57-517 of the human sequence) (Homo sapiens (Human), UniProt Q70CQ3). In words: In vitro USP30 biochemical assay (Ubiquitin-Rhodamine substrate). To be noted: 1.5 nM recombinant USP30, 25 nM Ubiquitin-Rhodamine, fluorescence. The protocol:
In vitro biochemical assay to establish the potency of compounds for USP30 inhibition: a 384-well plate assay using a fluorophore tagged substrate of USP30 was used for in vitro screening of compounds. Each compound was tested at
10 different concentrations (0.5 to 10,000 nM) in duplicate wells. […] Data were analyzed using Graph Pad Prism software with a four-parameter (floating slope) fit to log concentration data to determine IC50s.
With `CC(C)(C)NC(=O)N1CCC(NC(=O)[C@H](Cc2ccccc2)NC(=O)c2ccc(F)cc2)CC1` [Compound I-57, (S)—N-(tert-butyl)-4-(2-(4-fluorobenzamido)-3-phenylpropanamido)piperidine-1-carboxamide], the IC50 fell in the range of 1 to 10 µM.

As for `CC(C)(C)NS(=O)(=O)N1CCC(NC(=O)[C@H](Cc2ccccc2)NC(=O)c2ccc(F)cc2)CC1` [Compound I-58, (S)—N-(1-((1-(N-(tert-butyl)sulfamoyl)piperidin-4-yl)amino)-1-oxo-3-phenylpropan-2-yl)-4-fluorobenzamide], the IC50 lay within 1 to 10 µM.

As for `O=C(N[C@@H](Cc1ccccc1)C(=O)Nc1ccc(S(=O)(=O)NC23CC(C2)C3)c(O)c1)c1ccc(F)cc1` [Compound I-64], the half-inhibitory concentration (IC50) was in the range of 0.05 to 1 µM.

`COc1cc(NC(=O)[C@H](CC(C)C)NC(=O)c2ccc(F)cc2)cnc1S(=O)(=O)NC(C)(C)CO` [Compound I-73]: the IC50 was 1 to 10 µM.

Turning to `CC(C)(CO)NS(=O)(=O)c1ccc(NC(=O)[C@H](CC2CCOCC2)NC(=O)c2ccc(F)cc2)cn1` [Compound I-74], the IC50 lay in the range of 0.05 to 1 µM.

Regarding `COc1cc(NC(=O)[C@H](CC2CCOCC2)NC(=O)c2ccc(F)cc2)cnc1S(=O)(=O)NC(C)(C)C` [Compound I-75], the IC50 was 0.05 to 1 µM.

Take `COc1cc(NC(=O)[C@H](CC2CCOCC2)NC(=O)c2ccc(F)cc2)cnc1S(=O)(=O)NC(C)(C)CO` [Compound I-76]: the IC50 was in the range of 0.05 to 1 µM.

On to `CC(C)(C)NS(=O)(=O)c1ccc(NC(=O)[C@@H](NC(=O)c2ccc(F)cc2)C(C)(C)C)cc1` [Compound I-77], for which the IC50 fell in the range of 1 to 10 µM.

On to `COc1cc(NC(=O)[C@H](CC2CCN(C)CC2)NC(=O)c2ccc(F)cc2)cnc1S(=O)(=O)NC(C)(C)C` [Compound I-80], for which the concentration for half-maximal inhibition (IC50) fell in the range of 0.05 to 1 µM.

As to `COc1cc(NC(=O)[C@H](CC2CCOCC2)NC(=O)c2ccc(F)cc2)cnc1S(=O)(=O)NC1CCC1` [Compound I-81], the IC50 lay within 0.05 to 1 µM.

As for `COc1cc(NC(=O)[C@H](CC2CCOCC2)NC(=O)c2ccc(F)cc2)cnc1S(=O)(=O)NC1CCN(C)CC1` [Compound I-83], the IC50 is 1 to 10 µM.

As for `COc1cc(NC(=O)[C@H](CC2CCOCC2)NC(=O)c2ccc(F)cc2)ccc1S(=O)(=O)NC1CCN(C)CC1` [Compound I-88], the IC50 was in the range of 0.05 to 1 µM.

With `COc1cc(NC(=O)[C@H](CC2CCN(C)CC2)NC(=O)c2ccc(F)cc2)ccc1S(=O)(=O)N[C@@H]1CCOC1` [Compound I-95], the half-maximal inhibitory concentration (IC50) is 0.05 to 1 µM.

As for `COc1cc(NC(=O)[C@H](CC2CCN(C)CC2)NC(=O)c2ccc(F)cc2)ccc1S(=O)(=O)NC1COC1` [Compound I-96], the 50% inhibitory concentration (IC50) was 0.05 to 1 µM.

For `CN1CCC(NS(=O)(=O)c2ccc(NC(=O)[C@H](CC3CCOCC3)NC(=O)c3ccc(F)cc3)cn2)CC1` [Compound I-98], the half-maximal inhibitory concentration (IC50) is 1 to 10 µM.

On to `COc1cc(NC(=O)[C@H](CC2CCN(C)CC2)NC(=O)c2ccc(F)cc2)cnc1S(=O)(=O)NC(C)(C)CO` [Compound I-100], for which the IC50 lay in the range of 1 to 10 µM.

Take `CN1CCC(C[C@H](NC(=O)c2ccc(F)cc2)C(=O)Nc2ccc(S(=O)(=O)NC3COC3)nc2)CC1` [Compound I-104]: the IC50 is 1 to 10 µM.

With `O=C(N[C@@H](CC1CCNCC1)C(=O)Nc1ccc(S(=O)(=O)N[C@@H]2CCOC2)nc1)c1ccc(F)cc1` [Compound I-108], the IC50 fell in the range of 0.05 to 1 µM.

For the molecule `O=C(N[C@@H](CC1CCNCC1)C(=O)Nc1ccc(S(=O)(=O)NC2COC2)nc1)c1ccc(F)cc1` [Compound I-111], the IC50 lay within 1 to 10 µM.

With `O=C(NC(CC1CCNCC1)C(=O)Nc1ccc(S(=O)(=O)NC2COC2)cc1)c1ccc(F)cc1` (stereo not shown) [Compound I-120], the IC50 was in the range of 0.05 to 1 µM.

As to `N#CN1CC[C@H](NC(=O)[C@H](Cc2ccccc2)NC(=O)c2ccc(F)cc2)C1` [Compound I-123], the IC50 was 1 to 10 µM.

As to `CN1CCC(C[C@H](NC(=O)c2ccc(F)cc2)C(=O)Nc2ccc(S(=O)(=O)NC(C)(C)CF)cc2)CC1` [Compound I-127], the IC50 fell in the range of 0.05 to 1 µM.

Turning to `COc1cc(NC(=O)[C@H](CC2CCOCC2)NC(=O)c2ccc(F)cc2)ccc1S(=O)(=O)NC1CCOCC1` [Compound I-134], the IC50 fell in the range of 0.05 to 1 µM.

On to `COc1cc(NC(=O)[C@H](CC2CCNCC2)NC(=O)c2ccc(F)cc2)ccc1S(=O)(=O)NC1CCOCC1` [Compound I-135], for which the IC50 lay within 0.05 to 1 µM.

With `COc1cc(NC(=O)[C@H](Cc2ccccc2)NC(=O)c2ccc(F)cc2)c(Cl)cc1S(=O)(=O)NC1(CO)CC1` [Compound I-139], the IC50 is 1 to 10 µM.

As to `CN1CCC(C[C@H](NC(=O)c2ccc(F)cc2)C(=O)Nc2ccc(S(=O)(=O)NC3CCOCC3)nc2)CC1` [Compound I-140], the IC50 lay in the range of 0.05 to 1 µM.

For the molecule `COc1cc(NC(=O)[C@H](Cc2ccccc2)NC(=O)c2ccc(F)cc2)c(Cl)cc1S(=O)(=O)NC(C)(CO)CO` [Compound I-142], the IC50 is 1 to 10 µM.

With `O=C(N[C@@H](CC1CCNCC1)C(=O)Nc1ccc(S(=O)(=O)NC2CCOCC2)nc1)c1ccc(F)cc1` [Compound I-144], the IC50 lay in the range of 0.05 to 1 µM.

As for `CC(C)(C)NS(=O)(=O)c1ccc(NC(=O)[C@H](Cc2ccccc2)NC(=O)c2cc[nH]n2)cc1` [Compound I-178], the IC50 is 1 to 10 µM.

As to `CC(C)(C)NS(=O)(=O)c1ccc(NC(=O)[C@H](Cc2ccccc2)NC(=O)N2CC3(COC3)C2)cc1` [Compound I-179], the IC50 lay in the range of 1 to 10 µM.

`CN1CCN(C(=O)N[C@@H](Cc2ccccc2)C(=O)Nc2ccc(S(=O)(=O)NC(C)(C)C)cc2)CC1` [Compound I-180]: the IC50 lay within 1 to 10 µM.

On to `CN1CCC(C[C@H](NC(=O)c2ccc(F)nc2)C(=O)Nc2ccc(S(=O)(=O)NC(C)(C)C)cc2)CC1` [Compound I-183], for which the IC50 is 0.05 to 1 µM.

Take `CC(C)(C)NS(=O)(=O)c1ccc(NC(=O)[C@H](Cc2ccccc2)NC(=O)N2CCOCC2)cc1` [Compound I-184]: the IC50 was in the range of 1 to 10 µM.

As for `CC(C)(C)NS(=O)(=O)c1ccc(NC(=O)[C@H](Cc2ccccc2)NC(=O)c2cncnc2)cc1` [Compound I-188], the IC50 is 0.05 to 1 µM.

For `CC(C)(C)NS(=O)(=O)c1ccc(NC(=O)[C@H](Cc2ccccc2)NC(=O)c2ccc3nn[nH]c3c2)cc1` [Compound I-189], the IC50 was 0.05 to 1 µM.

As to `CC(C)(C)NS(=O)(=O)c1ccc(NC(=O)[C@H](Cc2ccccc2)NC(=O)c2ccc3cn[nH]c3c2)cc1` [Compound I-190], the IC50 is 1 to 10 µM.

Consider `CC(C)(C)NS(=O)(=O)c1ccc(NC(=O)[C@H](Cc2ccccc2)NC(=O)C2CCNCC2)cc1` [Compound I-192], for which the IC50 lay within 1 to 10 µM.

The experiment is the same for the next values; noted with them: […] recombinant USP30, 25 nM Ubiquitin-Rhodamine, fluorescence.
As for `CC(C)(C)NS(=O)(=O)c1ccc(NC(=O)[C@H](Cc2ccccc2)NC(=O)c2ccc(F)cc2)cc1O` [Compound I-63], the IC50 was under 0.05 µM.

Turning to `CC(C)(C)NS(=O)(=O)c1ccc(NC(=O)C(Cc2ccccc2)c2nnc(-c3ccccc3)[nH]2)cc1` (stereo not shown) [Compound I-89], the IC50 is over 10 µM.

Take `CC(C)(C)NS(=O)(=O)c1ccc(NC(=O)C(Cc2ccccc2)c2nnc(-c3ccc(F)cc3)[nH]2)cc1` (stereo not shown) [Compound I-90]: the IC50 was over 10 µM.

Turning to `O=C(Nc1ccc(S(=O)(=O)N[C@@H]2CCOC2)cc1)[C@@H]1C[C@@H](c2ccccc2)CN1C(=O)c1ccc(F)cc1` [Compound I-92], the IC50 was 1 to 10 µM.

Regarding `O=C(N[C@@H](Cc1ccccc1)C(=O)NC1CCN(C(=O)OCc2ccccc2)CC1)c1ccc(F)cc1` [Compound I-113], the IC50 was over 10 µM.

Turning to `CC(=O)N1CCC(NC(=O)[C@H](Cc2ccccc2)NC(=O)c2ccc(F)cc2)CC1` [Compound I-114], the IC50 was over 10 µM.

With `CC(C)(C)NS(=O)(=O)c1ccc(NC(=O)[C@H](CC2CCN(c3ccccc3)CC2)NC(=O)c2ccc(F)cc2)cc1` [Compound I-116], the IC50 was under 0.05 µM.

`CNS(=O)(=O)N1CCC(NC(=O)[C@H](Cc2ccccc2)NC(=O)c2ccc(F)cc2)CC1` [Compound I-118]: the IC50 was over 10 µM.

Regarding `CNC(=O)N1CCC(NC(=O)[C@H](Cc2ccccc2)NC(=O)c2ccc(F)cc2)CC1` [Compound I-119], the IC50 was over 10 µM.

With `N#CN1CCC(NC(=O)[C@H](Cc2ccccc2)NC(=O)c2ccc(F)cc2)CC1` [Compound I-124], the half-maximal inhibitory concentration (IC50) is over 10 µM.

With `CC(C)(NS(=O)(=O)c1ccc(NC(=O)[C@H](CC2CCOCC2)NC(=O)c2ccc(F)cc2)cc1)C(F)(F)F` [Compound I-126], the IC50 was under 0.05 µM.

Turning to `O=C(N[C@@H](Cc1ccccc1)C(=O)N[C@@H]1CCNC1)c1ccc(F)cc1` [Compound I-146], the IC50 is over 10 µM.

With `CN1CC[C@@H](NC(=O)[C@H](Cc2ccccc2)NC(=O)c2ccc(F)cc2)C1` [Compound I-152], the IC50 was over 10 µM.

Turning to `N#CCN1CC[C@@H](NC(=O)[C@H](Cc2ccccc2)NC(=O)c2ccc(F)cc2)C1` [Compound I-154], the IC50 is over 10 µM.

In the case of `CC(C)(C)NS(=O)(=O)N1CC[C@@H](NC(=O)[C@H](Cc2ccccc2)NC(=O)c2ccc(F)cc2)C1` [Compound I-162], the IC50 is over 10 µM.

Regarding `O=C(N[C@@H](Cc1ccccc1)C(=O)N[C@@H]1CCN(S(=O)(=O)NC2COC2)C1)c1ccc(F)cc1` [Compound I-169], the IC50 was over 10 µM.

As for `O=C(N[C@@H](Cc1ccccc1)C(=O)N[C@@H]1CCN(S(=O)(=O)NC2CCOC2)C1)c1ccc(F)cc1` (stereo partly shown) [Compound I-170], the IC50 is over 10 µM.

Consider `CC(C)(C)NS(=O)(=O)c1ccc(NC(=O)[C@H](Cc2ccccc2)NC(=O)c2c[nH]cn2)cc1` [Compound I-176], for which the IC50 was over 10 µM.

As to `CC(C)(C)NS(=O)(=O)c1ccc(NC(=O)[C@H](Cc2ccccc2)NC(=O)c2cc[nH]c2)cc1` [Compound I-181], the IC50 was over 10 µM.

For `CC(C)(C)NS(=O)(=O)c1cccc2c(NC(=O)[C@H](Cc3ccccc3)NC(=O)C3CCNCC3)cccc12` [Compound I-187], the IC50 was over 10 µM.

As for `CC(C)(C)NS(=O)(=O)c1ccc(NC(=O)[C@H](Cc2ccccc2)NC(=O)c2ncccn2)cc1` [Compound I-191], the IC50 is over 10 µM.

Source of the values: patent US20250162989A1, “USP30 INHIBITORS AND USES THEREOF” (Vincere Biosciences, Inc., priority 2021, published 2025).
